Laboratory results reported in publication PMC10880909, “Correction: A high-throughput effector screen identifies a novel small molecule scaffold for inhibition of ten-eleven translocation dioxygenase 2” (RSC Medicinal Chemistry, 2024).

Molecular target: hTET2 (Homo sapiens, UniProt Q6N021)
Assay: MALDI-based inhibition assay of hTET2
Conditions: for hTET2 inhibition, result in words: additional SAR / re-synthesis

SMILES	IC50 [µM]	hTET2 inhibition, result in words
CC(C)OS(=O)(=O)c1ccc(F)c2ncc(I)cc12 [Compound 5]	> 200	–
CCCCCOS(=O)(=O)c1ccc(F)c2ncc(I)cc12 [Compound 6]	> 200	–
NS(=O)(=O)c1ccc(F)c2ncc(I)cc12 [Compound 8]	> 200	–
CNS(=O)(=O)c1ccc(F)c2ncc(I)cc12 [Compound 9]	> 200	–
O=S(=O)(c1ccc(F)c2ncc(I)cc12)N1CCCC1 [Compound 10]	> 200	–
O=S(=O)(O)c1ccc(O)c2ncccc12 [Compound 18]	12.1 ± 4.2	–
O=C(O)c1ccc(F)c2ncccc12 [Compound 19]	> 200	inactivity
Oc1cc2c(cc1O)CNCC2 [Compound 21, tetrahydroisoquinoline-6,7-diol]	8.6	micromolar IC50 values
O=C(O)c1ncccc1O [Compound 22, 3-hydroxypicolinic acid]	48.6	micromolar IC50 values

Now from value to molecule, other results behind:

IC50 [µM]	SMILES	hTET2 inhibition, result in words
> 200	O=S(=O)(Nc1ccccc1)c1ccc(F)c2ncc(I)cc12 [Compound 11]	–
> 200	O=S(=O)(NCc1ccccc1)c1ccc(F)c2ncc(I)cc12 [Compound 13]	–
> 200	O=S(=O)(NCCc1ccccc1)c1ccc(F)c2ncc(I)cc12 [Compound 14]	–
> 200	O=S(=O)(Nc1cccc(O)c1)c1ccc(F)c2ncc(I)cc12 [Compound 16]	–
